For one test, the target named is Vasopressin V1a receptor (Homo sapiens, UniProt P37288). Briefly: Counterscreen for Oxytocin Receptor (OXTR) agonists: Fluorescence-based cell-based high throughput dose response assay to identify agonists of the vasopressin 1 receptor (V1R). [Related pubchem assays: 2435 (Primary screen (OXTR agonists in singlicate)), 434991 (Counterscreen (V1R agonists in triplicate)), 2482 (Summary (OXTR agonists)) …. The format is functional. (In general: A counterscreen serves to expose hits that act by an unwanted route or on another target.)
Chain of Vasopressin V1a receptor (P37288 whole entry): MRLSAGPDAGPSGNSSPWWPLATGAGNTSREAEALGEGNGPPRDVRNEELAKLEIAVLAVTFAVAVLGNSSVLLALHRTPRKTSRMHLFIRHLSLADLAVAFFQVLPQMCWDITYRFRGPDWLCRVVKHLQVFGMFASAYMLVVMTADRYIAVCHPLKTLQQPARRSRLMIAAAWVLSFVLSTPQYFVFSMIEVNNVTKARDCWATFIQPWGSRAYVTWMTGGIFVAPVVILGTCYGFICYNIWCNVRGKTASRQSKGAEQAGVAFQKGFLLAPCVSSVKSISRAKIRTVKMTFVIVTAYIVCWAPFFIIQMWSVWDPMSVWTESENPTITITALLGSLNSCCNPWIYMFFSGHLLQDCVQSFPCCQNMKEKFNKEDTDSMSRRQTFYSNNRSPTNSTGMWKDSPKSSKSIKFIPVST

For the next test, the target named is Oxytocin receptor (Homo sapiens, UniProt P30559). Briefly: Fluorescence-based cell-based high throughput dose response assay for agonists of the Oxytocin Receptor (OXTR). [Related pubchem assays: 2435 (Primary screen (OXTR agonists in singlicate)), 434991 (Counterscreen (V1R agonists in triplicate)), 2482 (Summary (OXTR agonists)), 434963 (Confirmation screen (OXTR agonists in triplicate))]. The format is functional.

Test [1] deals with HEK293. Briefly: Fluorescence-based counterscreen for potentiators or agonists of NPY-Y2: cell-based high-throughput dose response assay to identify inhibitors of cyclic nucleotide gated ion channel (CNGC) activity. In this assay, the parental HEK293 cell line transfected with a cyclic-nucleotide gated ion channel (CNGC)-based cAMP sensor is used to measure inhibition of isoproterenol-induced CNGC activity by test compound. The format is functional. To be noted: Homo sapiens.

Test [2] deals with Neuropeptide Y receptor type 2 (Homo sapiens, UniProt P49146). Briefly: Fluorescence-based cell-based high-throughput dose response assay for agonists of NPY-Y2. [Related pubchem assays: 1703 (Screening assay (CNGC inhibitors).), 1359 (Screening assay (NPY-Y2 potentiators or agonists).), 1304 (Screening assay (NPY-Y1 potentiators or agonists).), 1710 (Screening assay (NPY-Y2 agonists).), 1791 (Summary AID.)]. The format is functional.

Test [3] addresses Neuropeptide Y receptor type 1 (Homo sapiens, UniProt P25929). Briefly: Fluorescence-based counterscreen for agonists of NPY-Y2: cell-based high-throughput dose response assay for agonists of NPY-Y1. The class given is functional.
The subject of test [4] is Streptococcus sp. 'group A'. Briefly: growth inhibition of control SK(-) GAS strain, dose response, counter-screen for streptokinase expression inhibitor project, luminescence, kanamycin, BacTiterGlo, confirmation (AID 1900). The format is functional, organism-based.
In the next test the target is T1, Streptokinase A (Streptococcus pyogenes serotype M1, UniProt P10520).
T1 sequence (P10520 whole entry): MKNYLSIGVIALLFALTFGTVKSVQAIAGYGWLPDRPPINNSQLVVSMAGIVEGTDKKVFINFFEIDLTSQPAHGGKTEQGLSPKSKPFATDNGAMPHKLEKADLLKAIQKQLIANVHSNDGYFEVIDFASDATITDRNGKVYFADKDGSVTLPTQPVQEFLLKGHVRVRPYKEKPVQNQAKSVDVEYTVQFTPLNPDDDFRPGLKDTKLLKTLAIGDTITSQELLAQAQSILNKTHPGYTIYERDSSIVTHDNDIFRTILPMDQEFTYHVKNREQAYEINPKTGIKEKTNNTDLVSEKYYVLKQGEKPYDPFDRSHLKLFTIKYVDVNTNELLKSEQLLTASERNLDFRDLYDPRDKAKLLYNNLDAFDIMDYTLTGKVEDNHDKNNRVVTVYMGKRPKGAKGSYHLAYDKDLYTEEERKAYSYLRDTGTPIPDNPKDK
Briefly: S. pyogenes streptokinase expression inhibitors, potency, dose response, plasminogen activation absorbance, OD405 (AID 1914).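 Further: secreted streptokinase activity via plasminogen activation per viability signal from cell pellet.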 The format is functional, Streptococcus pyogenes M1 GAS.

In the next test the test system is Streptococcus. Briefly: Group A Streptococcus viability loss, dose response, counter-screen for streptokinase expression inhibitor project, luminescence, BacTiterGlo (AID 1915).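 Further: potency for reduction of bacterial viability or growth.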 The format is functional, organism-based.
Test [5] concerns the target Scavenger receptor class B member 1 (Mus musculus, UniProt Q61009). Briefly: inhibitors of SR-BI mediated HDL lipid uptake, dose response, ldlA[mSR-BI] cells, fluorescence, cherry pick (AID 493194).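 Further: cellular uptake of fluorescent DiI-labeled HDL measured as cell fluorescence.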 The format is functional, cell-based.
The next test deals with SUMO E1/E2 (Homo sapiens, UniProt P63279+Q9UBE0+Q9UBT2). Briefly: SAR analysis of SUMOylation using HTRF in an in-Vitro dose response assay. [Related pubchem assays (depositor defined):AID2006, AID2011, AID2018, AID2069, AID2658]. The class given is functional. (In general: In TR-FRET formats the signal depends on donor and acceptor labels being close together.)
Chain of SUMO E1/E2 (Q9UBE0 whole entry): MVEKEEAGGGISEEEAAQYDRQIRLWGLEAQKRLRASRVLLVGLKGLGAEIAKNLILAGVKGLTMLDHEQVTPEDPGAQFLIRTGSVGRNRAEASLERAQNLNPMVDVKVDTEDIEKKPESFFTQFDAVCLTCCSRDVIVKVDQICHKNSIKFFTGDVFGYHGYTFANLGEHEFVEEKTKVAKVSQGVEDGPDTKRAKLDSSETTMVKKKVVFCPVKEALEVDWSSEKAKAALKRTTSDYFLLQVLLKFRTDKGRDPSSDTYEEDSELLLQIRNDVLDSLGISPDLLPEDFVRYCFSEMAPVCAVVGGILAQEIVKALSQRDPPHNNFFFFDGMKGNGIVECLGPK
Chain of SUMO E1/E2 (Q9UBT2 whole entry): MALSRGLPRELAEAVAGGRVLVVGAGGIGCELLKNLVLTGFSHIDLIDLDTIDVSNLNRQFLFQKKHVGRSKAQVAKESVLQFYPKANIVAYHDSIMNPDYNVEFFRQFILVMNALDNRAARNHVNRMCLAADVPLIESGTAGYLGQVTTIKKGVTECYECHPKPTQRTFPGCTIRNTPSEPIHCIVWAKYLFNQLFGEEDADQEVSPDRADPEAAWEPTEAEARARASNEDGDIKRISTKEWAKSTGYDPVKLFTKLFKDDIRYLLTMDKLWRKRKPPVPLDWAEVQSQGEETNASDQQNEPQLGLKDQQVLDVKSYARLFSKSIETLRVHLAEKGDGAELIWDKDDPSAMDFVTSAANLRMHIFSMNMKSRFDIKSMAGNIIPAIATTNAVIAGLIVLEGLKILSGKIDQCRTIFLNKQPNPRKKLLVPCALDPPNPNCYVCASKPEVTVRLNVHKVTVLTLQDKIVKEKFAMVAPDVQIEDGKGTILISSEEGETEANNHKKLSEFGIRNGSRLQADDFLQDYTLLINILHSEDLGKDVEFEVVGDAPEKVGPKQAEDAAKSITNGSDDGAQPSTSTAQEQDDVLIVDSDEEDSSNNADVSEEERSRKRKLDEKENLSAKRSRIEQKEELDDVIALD
Chain of SUMO E1/E2 (P63279 whole entry): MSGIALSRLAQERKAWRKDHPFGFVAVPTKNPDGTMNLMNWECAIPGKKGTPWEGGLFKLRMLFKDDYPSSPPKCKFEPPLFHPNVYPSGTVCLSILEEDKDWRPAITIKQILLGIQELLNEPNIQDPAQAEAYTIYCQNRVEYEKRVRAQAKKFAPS
Test [6] concerns the target T2, Voltage-gated N-type calcium channel alpha-1B subunit/Amyloid beta A4 precursor protein-binding family A member 1 (Homo sapiens, UniProt Q00975+Q02410). Briefly: disruptors of Mint-PDZ/N-type channel peptide interaction – biochemical, HTRF, set 2, SAR follow-up (AID 434980). The format is functional.
Test [7] addresses T2, Voltage-gated N-type calcium channel alpha-1B subunit/Amyloid beta A4 precursor protein-binding family A member 1. Briefly: disruptors of Mint-PDZ/N-type channel peptide interaction – biochemical, HTRF, SAR follow-up (AID 2489). The class given is functional.
Test [8] relates to HEK293. Briefly: NOD1 signaling inhibitors, primary screen, cell-based, luminescence, uHTS (AID 1578). The class given is functional. To be noted: Homo sapiens.
Test [9] deals with HEK293. Briefly: cells. The class given is functional, cell-based. To be noted: Homo sapiens.
The subject of test [10] is HEK293. Briefly: cells. To be noted: Homo sapiens. The format is functional, cell-based. This is another data set of the same source.
In test [11] the test system is HEK293. Briefly: NOD2 signaling inhibitors in MDP-stimulated cells, cell-based, uHTS, luminescence (AID 2001). The class given is functional. To be noted: Homo sapiens.
The target of the next test is Tumor necrosis factor (Homo sapiens, UniProt P01375). Briefly: TNFa-triggered NF-kB activation inhibitors, SAR follow-up, cell-based, revised (AID 2337). The class given is functional.
Chain of Tumor necrosis factor (P01375 whole entry, the tested form may be a part): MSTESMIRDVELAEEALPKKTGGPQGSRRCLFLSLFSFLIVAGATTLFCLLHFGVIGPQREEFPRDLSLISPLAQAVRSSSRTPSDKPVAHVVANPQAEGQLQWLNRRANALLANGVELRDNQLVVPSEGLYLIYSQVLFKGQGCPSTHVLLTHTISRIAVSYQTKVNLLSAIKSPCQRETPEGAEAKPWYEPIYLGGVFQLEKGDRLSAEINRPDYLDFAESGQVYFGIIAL
The target in test [12] is Nucleotide-binding oligomerization domain-containing protein 1 (Homo sapiens, UniProt Q9Y239). Briefly: NOD1 signaling inhibitors, SAR follow-up, revised (AID 2333). The format is functional.
Test [13] deals with Nucleotide-binding oligomerization domain-containing protein 2 (Homo sapiens, UniProt Q9HC29). Briefly: PubChem AID 2334. The class given is functional.
For test [14], the system named is HEK293. Briefly: cells. To be noted: Homo sapiens.

Activity calls are given as the source filed them. Some results are limits rather than exact numbers.

By EC50 is commonly meant the concentration at which the effect is half-maximal. A word on the AC50: it is the midpoint of the concentration-response curve, whichever way the signal moves. As a reminder, the IC50 is the concentration needed to halve the response being measured.

T2 sequence (Q00975 whole entry): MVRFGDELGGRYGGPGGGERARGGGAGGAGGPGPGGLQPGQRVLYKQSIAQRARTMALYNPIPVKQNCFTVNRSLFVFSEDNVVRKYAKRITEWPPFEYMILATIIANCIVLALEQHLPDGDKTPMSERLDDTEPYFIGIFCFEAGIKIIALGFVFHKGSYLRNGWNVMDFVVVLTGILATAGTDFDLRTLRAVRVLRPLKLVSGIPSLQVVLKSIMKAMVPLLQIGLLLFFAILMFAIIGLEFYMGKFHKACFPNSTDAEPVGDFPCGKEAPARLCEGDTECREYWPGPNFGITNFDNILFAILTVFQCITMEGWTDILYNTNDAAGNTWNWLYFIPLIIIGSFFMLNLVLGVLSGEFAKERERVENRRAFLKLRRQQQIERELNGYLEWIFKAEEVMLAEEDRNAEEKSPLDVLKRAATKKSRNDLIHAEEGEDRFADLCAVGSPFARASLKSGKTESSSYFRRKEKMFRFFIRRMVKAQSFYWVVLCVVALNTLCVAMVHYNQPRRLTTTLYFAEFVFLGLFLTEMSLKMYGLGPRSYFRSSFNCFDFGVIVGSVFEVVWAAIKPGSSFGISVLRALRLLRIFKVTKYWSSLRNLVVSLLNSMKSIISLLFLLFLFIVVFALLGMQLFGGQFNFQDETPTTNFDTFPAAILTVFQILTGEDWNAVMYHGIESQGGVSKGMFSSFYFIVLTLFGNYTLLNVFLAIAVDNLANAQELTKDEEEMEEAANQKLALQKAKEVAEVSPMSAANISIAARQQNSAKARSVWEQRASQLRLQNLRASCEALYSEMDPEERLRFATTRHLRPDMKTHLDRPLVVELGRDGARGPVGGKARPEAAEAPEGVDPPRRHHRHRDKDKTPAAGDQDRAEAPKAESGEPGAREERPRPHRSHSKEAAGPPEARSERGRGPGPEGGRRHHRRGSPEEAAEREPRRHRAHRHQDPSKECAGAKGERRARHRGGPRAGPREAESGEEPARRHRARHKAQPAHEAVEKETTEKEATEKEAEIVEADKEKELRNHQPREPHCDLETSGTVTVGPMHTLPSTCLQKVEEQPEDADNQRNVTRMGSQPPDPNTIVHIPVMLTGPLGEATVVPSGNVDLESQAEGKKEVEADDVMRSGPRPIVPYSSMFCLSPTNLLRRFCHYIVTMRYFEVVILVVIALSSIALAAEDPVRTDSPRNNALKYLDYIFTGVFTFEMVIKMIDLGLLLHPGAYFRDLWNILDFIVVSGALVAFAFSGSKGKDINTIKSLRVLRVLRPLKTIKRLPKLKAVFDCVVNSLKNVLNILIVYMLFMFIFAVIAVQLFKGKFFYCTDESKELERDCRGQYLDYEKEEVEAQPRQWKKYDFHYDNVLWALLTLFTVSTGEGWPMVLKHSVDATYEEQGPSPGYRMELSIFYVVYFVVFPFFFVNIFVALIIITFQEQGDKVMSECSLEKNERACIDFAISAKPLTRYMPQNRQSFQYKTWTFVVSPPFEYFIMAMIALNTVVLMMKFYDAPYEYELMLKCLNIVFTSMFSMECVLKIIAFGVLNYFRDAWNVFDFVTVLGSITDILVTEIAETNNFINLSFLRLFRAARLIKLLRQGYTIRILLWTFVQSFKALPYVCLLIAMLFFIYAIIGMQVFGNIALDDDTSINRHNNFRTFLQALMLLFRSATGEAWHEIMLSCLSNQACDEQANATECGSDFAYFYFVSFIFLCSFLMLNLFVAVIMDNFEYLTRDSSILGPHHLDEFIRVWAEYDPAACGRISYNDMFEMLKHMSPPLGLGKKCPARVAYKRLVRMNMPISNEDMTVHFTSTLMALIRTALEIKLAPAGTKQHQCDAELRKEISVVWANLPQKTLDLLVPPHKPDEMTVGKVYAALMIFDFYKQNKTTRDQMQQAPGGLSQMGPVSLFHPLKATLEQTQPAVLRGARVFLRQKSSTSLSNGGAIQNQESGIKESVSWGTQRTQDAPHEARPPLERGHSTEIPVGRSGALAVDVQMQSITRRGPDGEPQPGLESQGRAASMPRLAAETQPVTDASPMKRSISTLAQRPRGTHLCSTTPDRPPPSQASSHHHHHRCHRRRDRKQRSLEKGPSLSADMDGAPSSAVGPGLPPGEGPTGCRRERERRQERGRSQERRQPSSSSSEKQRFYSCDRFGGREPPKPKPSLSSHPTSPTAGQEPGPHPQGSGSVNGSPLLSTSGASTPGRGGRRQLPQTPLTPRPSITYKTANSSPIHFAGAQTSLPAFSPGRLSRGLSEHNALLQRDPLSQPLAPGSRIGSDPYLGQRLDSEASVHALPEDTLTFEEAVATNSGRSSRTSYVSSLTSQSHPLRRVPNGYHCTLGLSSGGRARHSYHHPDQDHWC
T2 sequence (Q02410 whole entry): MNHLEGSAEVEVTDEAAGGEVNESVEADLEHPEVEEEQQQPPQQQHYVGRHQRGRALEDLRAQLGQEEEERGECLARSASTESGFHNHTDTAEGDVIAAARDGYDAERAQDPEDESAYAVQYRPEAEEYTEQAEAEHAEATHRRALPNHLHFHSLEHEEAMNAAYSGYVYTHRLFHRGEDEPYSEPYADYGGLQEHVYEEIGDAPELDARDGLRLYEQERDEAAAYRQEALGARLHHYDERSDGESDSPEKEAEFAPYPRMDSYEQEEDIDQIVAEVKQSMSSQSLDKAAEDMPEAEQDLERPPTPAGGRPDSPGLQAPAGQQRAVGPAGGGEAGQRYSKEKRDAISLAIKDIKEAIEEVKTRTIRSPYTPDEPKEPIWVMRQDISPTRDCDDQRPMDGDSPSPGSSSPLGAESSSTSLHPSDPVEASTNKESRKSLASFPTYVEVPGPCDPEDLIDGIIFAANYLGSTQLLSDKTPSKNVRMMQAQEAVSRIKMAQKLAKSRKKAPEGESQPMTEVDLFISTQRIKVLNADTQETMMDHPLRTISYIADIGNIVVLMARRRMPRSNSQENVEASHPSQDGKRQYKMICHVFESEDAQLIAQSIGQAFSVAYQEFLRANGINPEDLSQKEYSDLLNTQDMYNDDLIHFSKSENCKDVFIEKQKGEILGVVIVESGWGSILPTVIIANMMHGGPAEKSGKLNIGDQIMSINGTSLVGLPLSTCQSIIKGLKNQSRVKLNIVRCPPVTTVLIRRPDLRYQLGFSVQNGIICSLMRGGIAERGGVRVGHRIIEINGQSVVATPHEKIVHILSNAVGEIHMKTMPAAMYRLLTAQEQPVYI

Take `CC(C(=O)Nc1ccc2c(c1)OCO2)c1ccc([N+](=O)[O-])cc1` (stereo not given): the EC50 at Vasopressin V1a receptor and on Oxytocin receptor was > 29.9 µM (not active) each time.

Regarding `COc1ccc(Cn2cnc3c(NS(C)(=O)=O)c(C)c(C)cc32)cc1`, the EC50 is > 35.4 µM (not active) in the test with HEK293 [1], > 35.4 µM (not active) in test [2] and 19.3 µM (not active) in [3].

For the compound `O=C(Nc1ccc(-c2csc(Nc3ccccc3)n2)cc1)c1cccc(C(F)(F)F)c1`, the EC50 (in [4]; on Streptokinase A; with Streptococcus) was > 150 µM (not active) in each case. Also, the AC50 in test [5] is 0.347 µM (active).

Consider `O=C(NN=Cc1ccc(F)cc1)c1cc(-c2ccco2)nc2ccccc12`, for which the figures for the IC50 (on SUMO E1/E2; in test [6]; in test [7]) were 5.24 µM (active), 10.9 µM (active) and 6.45 µM (active), respectively.

Consider `COc1cccc(Nc2nc3ccccc3nc2NS(=O)(=O)c2cccs2)c1`, for which, in the test with HEK293 [8], the EC50 was 3.67 µM (active). The IC50 with HEK293 [9] is > 20 µM (inactive); in the test with HEK293 [10] it was > 20 µM (inactive); in the test with HEK293 [11], 11.5 µM (inactive); on Tumor necrosis factor, 12.3 µM (active); in [12] it was 4.68 µM (active); in test [13] it was 6.08 µM (active). In addition, the IC50 in the test on HEK293 [14] was > 20 µM (inactive).
